Several values for one entry are separate records, joined by “and”; a condition that tells them apart may be missing. Equal values may be shown once. Toxic doses and inconclusive results are not listed. Rule for the calls: active = survival T/C of 150% or more; inactive = T/C below 125% in these data.
Test system: BDF1 mice, P388 leukemia ip, median survival T/C
Experiment: NCI In Vivo Anticancer Drug Screen. Data for tumor model P388 Leukemia (intraperitoneal) in B6D2F1 (BDF1) mice
Settings: endpoint: median survival time, higher = longer survival
Outline: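 In tumour-bearing mice, survival after compound treatment is set against the vehicle group and given as a quotient.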

[1] = dose: 50.0 mg/kg/injection, schedule: Q01DX009 (ip), vehicle: saline with Tween-80
[2] = dose: 100.0 mg/kg/injection, schedule: Q01DX009 (ip), vehicle: saline with Tween-80
[3] = dose: 200.0 mg/kg/injection, schedule: Q01DX009 (ip), vehicle: saline with Tween-80
[4] = dose: 400.0 mg/kg/injection, schedule: Q01DX009 (ip), vehicle: saline with Tween-80
[5] = dose: 100.0 mg/kg/injection, schedule: Q01DX009 (ip), vehicle: saline
[6] = dose: 100.0 mg/kg/injection, schedule: Q04DX003 (ip), vehicle: saline with Tween-80
[7] = dose: 200.0 mg/kg/injection, schedule: Q01DX009 (ip), vehicle: saline
[8] = dose: 200.0 mg/kg/injection, schedule: Q04DX003 (ip), vehicle: saline with Tween-80
[9] = dose: 400.0 mg/kg/injection, schedule: Q01DX009 (ip), vehicle: saline
[10] = dose: 400.0 mg/kg/injection, schedule: Q04DX003 (ip), vehicle: saline with Tween-80

Measured: T/C

CCOC1c2cnc(C)n2C=CN1C(C)=O (centres undefined)
inactive: dose: 50.0 mg/kg/injection, schedule: Q04DX003 (ip), vehicle: water 109 % of control | dose: 100.0 mg/kg/injection, schedule: Q04DX003 (ip), vehicle: water 100 % of control and 104 % of control | dose: 200.0 mg/kg/injection, schedule: Q04DX003 (ip), vehicle: water 101 % of control and 111 % of control | dose: 300.0 mg/kg/injection, schedule: Q04DX003 (ip), vehicle: water 110 % of control | dose: 400.0 mg/kg/injection, schedule: Q04DX003 (ip), vehicle: water 118 % of control

CCCOC(=O)c1ccc(OP(=O)(N(C)C)N(C)C)cc1
inactive: [1] 100 % of control | [2] 104 % of control | [3] 100 % of control

O=c1cc(O)cc(/C=C/c2ccc(O)cc2)o1
inactive: [2] 96 % of control | [3] 107 % of control | dose: 265.0 mg/kg/injection, schedule: Q01DX009 (ip), vehicle: saline with Tween-80 90 % of control | [4] 98 % of control

O=S(=O)(O)C1(O)CCCCC1
inactive: [5] 105 % of control | [6] 95 % of control | dose: 100.0 mg/kg/injection, schedule: Q04DX003 (ip), vehicle: saline 109 % of control | [7] 100 % of control | [8] 104 % of control | dose: 200.0 mg/kg/injection, schedule: Q04DX003 (ip), vehicle: saline 104 % of control | [9] 105 % of control | [10] 100 % of control | dose: 400.0 mg/kg/injection, schedule: Q04DX003 (ip), vehicle: saline 100 % of control

N#CC1c2ccccc2C=CN1C(=O)c1ccccc1 (centres undefined)
inactive: [1] 115 % of control | [2] 110 % of control | dose: 100.0 mg/kg/injection, schedule: Q04DX003 (ip), vehicle: Klucel (hydroxypropylcellulose) (HPC) 100 % of control | [6] 100 % of control | [3] 110 % of control | dose: 200.0 mg/kg/injection, schedule: Q04DX003 (ip), vehicle: Klucel (hydroxypropylcellulose) (HPC) 109 % of control | [8] 100 % of control | [4] 110 % of control | dose: 400.0 mg/kg/injection, schedule: Q04DX003 (ip), vehicle: Klucel (hydroxypropylcellulose) (HPC) 109 % of control | [10] 100 % of control

CCOC(=O)C(NC(C)=O)(C(=O)OCC)C(C)C(O)c1ccc(OC)c(OC)c1O (centres undefined)
inactive: dose: 25.0 mg/kg/injection, schedule: Q01DX009 (ip), vehicle: saline 100 % of control | dose: 50.0 mg/kg/injection, schedule: Q01DX009 (ip), vehicle: saline 100 % of control | [5] 109 % of control | [7] 122 % of control | [9] 100 % of control

O=Nc1ccc(O)c2ncccc12
inactive: dose: 50.0 mg/kg/injection, schedule: Q01DX001 (ip), vehicle: Klucel (hydroxypropylcellulose) (HPC) 118 % of control

COC(=O)c1cc(=O)nc(N/N=C/c2ccc3c(c2)OCO3)s1
inactive: dose: 50.0 mg/kg/injection, schedule: Q01DX005 (ip), vehicle: saline with Tween-80 92 % of control | dose: 200.0 mg/kg/injection, schedule: Q01DX005 (ip), vehicle: saline with Tween-80 96 % of control

Source: PubChem BioAssay AID328 (DTP/NCI, 2004)
